Data reported in US6653331B2, “Targeted drug delivery using sulfonamide derivatives” (Pharmacia & Upjohn Company, priority 1996, dated 2003).
Each block holds one molecule with its values, some of them ahead of it.

What was measured:
rat hepatocytes = assay: In-vitro incubation with rat hepatocytes; format: in vitro ADME
Source text: (§1) The following observations were made during in-vivo (animal models) and in-vitro (cell cultures) studies of the metabolic disposition of the title compound.

human hepatocytes = assay: In-vitro incubation with human hepatocytes; format: in vitro ADME
Source text: as §1

GSTA3-3 = biological target: T1, GSTA3-3 (Rattus norvegicus, UniProt P04904); assay: Sulfonamidase activity of reconstituted isozyme GSTA3-3; format: biochemical; details: A3 homodimeric isoform of rat liver cytosol
T1 construct: The commercial preparation was a mixture of GST isozymes purified from rat liver; purchased; host or cells: rat liver (tissue-derived)
T1 sequence (P04904 2-221 limits assumed): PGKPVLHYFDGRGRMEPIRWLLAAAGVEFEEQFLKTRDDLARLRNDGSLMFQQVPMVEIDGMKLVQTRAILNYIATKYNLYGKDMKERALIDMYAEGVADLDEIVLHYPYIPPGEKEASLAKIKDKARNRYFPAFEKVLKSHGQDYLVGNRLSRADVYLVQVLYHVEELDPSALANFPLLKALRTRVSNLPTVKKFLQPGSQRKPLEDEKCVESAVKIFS
Source text: (§2) As GST exists in a myriad of isoforms, which are active as homodimers and heterodimers, the specific isozyme(s) which was responsible for sulfonamide bond cleavage in the title compound, was investigated. The commercial isozyme mixture was subjected to RP-HPLC on a C18 column (0.45×25 cm). The separation profile of the various isozymes was very similar to that of published work carried out in conditions almost identical to these conditions. […] The HPLC samples were subjected to lyophilization and refolded in an Na-phosphate buffer at pH 6.8. Alternatively, refolding was carried out by subjecting the HPLC samples to a 16 hours dialysis against Na-phosphate, pH 6.8 followed by a 6 hours dialysis against Na-phosphate, pH 7.4; the refolding process was carried out at 4° C. The title compound's sulfonamidase activity of the reconstituted isozymes was proven for the A3 homodimeric isoform (GSTA3-3), and for the M1 isoform (GSTM1-1) of rat liver cytosol. The identity of the A3 isozyme was confirmed by N-terminus amino acid sequence.

GSTM1-1 = biological target: T2, GSTM1-1 (Rattus norvegicus, UniProt P04905); assay: Sulfonamidase activity of reconstituted isozyme GSTM1-1; format: biochemical; details: M1 isoform of rat liver cytosol
T2 construct: The commercial preparation was a mixture of GST isozymes purified from rat liver; purchased; host or cells: rat liver (tissue-derived)
T2 sequence (P04905 2-218 limits assumed): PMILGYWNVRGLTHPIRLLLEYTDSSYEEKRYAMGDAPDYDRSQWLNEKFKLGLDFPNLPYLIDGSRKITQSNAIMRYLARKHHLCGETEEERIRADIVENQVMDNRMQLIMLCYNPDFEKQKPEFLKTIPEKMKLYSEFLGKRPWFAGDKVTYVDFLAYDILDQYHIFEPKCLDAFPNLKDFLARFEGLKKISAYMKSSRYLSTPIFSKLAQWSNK
Source text: as §2

GST = assay: Incubation with GST/GSH, cleavage of the sulfonamide bond; format: biochemical
Protocol: The protected title compound of formula J-1 is deprotected by GST/GSH under mild conditions. Incubations of 100 μM of this compound and 500 μM GSH with GST (0.5 mg protein /mL) are carried out in 100 mM phosphate buffer, pH 7.4 for 1 hour, at 37° C. in a volume of 0.5 mL. The cleavage of sulfonamide bond is essentially 100% complete after one hour incubation to yield the compound of formula J-2.
(§3) The protected title compound of J-1 is cleaved upon in-vitro incubation with GST/GSH. Enzymatic cleavage of J-1 yields sulfite (SO3^2−), azide (N3^−), and the glutathione-(p-nitrobenzene) conjugate.

[1] = system: Glutathione-S-transferase (GST); assay: Sulfonamidase activity of commercial GST (isozyme mixture from rat liver); format: biochemical; details: title compound and GSH as substrates
Protocol: Indeed, most of the activity of 10 ml of rat liver cytosol extract was retained by a GSH-Sepharose column (3.9 ml bed volume), packed and equilibrated in 20 mM Hepes buffer, pH 7.5, while the majority of the cytosolic protein was found in the effluent. After the column was washed extensively with up to 1 mM GSH, it was eluted with 5, 20, and 50 mM GSH. The various fractions were dialyzed against 20 mM Hepes buffer, pH 7.5 and tested for enzymatic activity using the title compound and GSH as substrates; the fractions were then subjected to SDS-PAGE. […] The GSH dependence for activity, the ability to purify the enzyme in a single step by a GSH affinity column, and the Mr˜25,000 pointed to Glutathione-S-transferase (GST). […] The commercial preparation was a mixture of GST isozymes purified from rat liver.

CACO-2 cells = assay: Metabolism in CACO-2 cell culture; format: in vitro ADME, human
Protocol: as §1, §3

intracellular GSH = details: cited from earlier work
[2] = In-vivo metabolic disposition in the rat
Source text: as §1

[3] = In-vivo metabolic disposition in the dog
Source text: as §1

cells = assay: Cytotoxicity in the presence of GST inhibitors; format: cell-based
Source text: Azide, N3^−, is an agent which is known to be cytotoxic to respiring cells. Azide inhibits ATP production via its interference with the cytochrome electron transport chain involved in the terminal stage of oxidative phosphorylation. The agent is markedly cytotoxic to cells relying on aerobic glycolysis/oxidative phosphorylation as a source of energy. […] Metabolism of J-1 within cells by GST releases the potent azide cytotoxin. Thus, covalent coupling of azide with the p-nitrobenzene sulfonyl moiety masks the cytotoxity of azide until cleavage by GST releases the active cytotoxin.

Molecule: CCC[C@@]1(CCc2ccccc2)CC(O)=C([C@H](CC)c2cccc(NS(=O)(=O)c3ccc(C#N)cn3)c2)C(=O)O1 (relative stereo) [J-1, [R-(R*,R*)]-5-Cyano-N-[3-[1-[5,6-dihydro-4-hydroxy-2-oxo-6-(2-phenylethyl)-6-propyl-2H-pyran-3-yl]propyl]phenyl]-2-pyridine-sulfonamide]
sulfonamide cleavage with release of J-2 (rat hepatocytes): underwent sulfonamide cleavage | sulfonamide cleavage with release of J-2 (human hepatocytes): underwent sulfonamide cleavage | sulfonamidase activity of reconstituted isozyme (GSTA3-3): proven | sulfonamidase activity of reconstituted isozyme (GSTM1-1): proven | cleavage of sulfonamide bond (GST; 100 μM compound, 500 μM GSH, GST 0.5 mg protein/mL, 100 mM phosphate buffer pH 7.4, 1 hour, 37° C.): ~100% | sulfonamidase activity of commercial GST [1]: high sulfonamidase activity | sulfonamide cleavage by CACO-2 cells (CACO-2 cells; CACO-2, human colon adenocarcinoma cell line): significant sulfonamide cleavage | rate of cleavage in CACO-2 cells compared with normal cells (CACO-2 cells; CACO-2 cells versus normal cells): markedly faster

Molecule: C=C(CC)C(=O)c1ccc(OCC(=O)O)c(Cl)c1Cl [Ethacrynic Acid]
effect on intracellular GSH (intracellular GSH): deplete intracellular GSH

circulating metabolite of the title compound in the blood [2]: major circulating metabolite | circulating metabolite of the title compound in the blood [3]: major circulating metabolite
Molecule: CCC[C@@]1(CCc2ccccc2)CC(O)=C([C@H](CC)c2cccc(N)c2)C(=O)O1 [J-2]

Molecule: [R-(R*,R*)]-5-Cyano-N-[3-[1-[5,6-dihydro-4-hydroxy-2-oxo-6-(2-phenylethyl)-6-propyl-2H-pyran-3-yl]propyl]phenyl]-2-pyridine-sulfonamide [J-1]
cytotoxicity (cells): relatively non-cytotoxic | cleavage upon in-vitro incubation with GST/GSH (GST; yields sulfite, azide and the glutathione-(p-nitrobenzene) conjugate): cleaved | metabolism to form the azide in the presence of known GST inhibitors (CACO-2 cells; known GST inhibitors present): blocked | metabolism in CACO-2 cell culture (CACO-2 cells; products compared with enzymatic GST/GSH cleavage): yield the same products
